Results as given in publication PMC8595653, “Activation of specific bitter taste receptors by olive oil phenolics and secoiridoids” (Scientific Reports, 2021).
Entries after “also recorded” stand apart in the source; their conditions may differ.

Columns and labels:
Assay type in all cases: cell-based
[1] = molecular target: T1, TAS2R8 (Homo sapiens, UniProt Q9NYW2); assay: Calcium mobilization functional assay, TAS2R8 co-expressed with Gα16-gust44 and GCaMP in HEK293E cells; conditions: for times more potent than oleuropein: potency of bitter receptor activation relative to oleuropein (1); for potency and efficacy on TAS2R8 in words: concentration-response experiments, maximal concentration 10 mM for oleuropein
T1 construct: first 45 amino acids of rat somatostatin type 3 receptor (SSTR3) export tag (N); expressed in transfected cells; host or cells: HEK293E
T1 sequence (Q9NYW2 1-309): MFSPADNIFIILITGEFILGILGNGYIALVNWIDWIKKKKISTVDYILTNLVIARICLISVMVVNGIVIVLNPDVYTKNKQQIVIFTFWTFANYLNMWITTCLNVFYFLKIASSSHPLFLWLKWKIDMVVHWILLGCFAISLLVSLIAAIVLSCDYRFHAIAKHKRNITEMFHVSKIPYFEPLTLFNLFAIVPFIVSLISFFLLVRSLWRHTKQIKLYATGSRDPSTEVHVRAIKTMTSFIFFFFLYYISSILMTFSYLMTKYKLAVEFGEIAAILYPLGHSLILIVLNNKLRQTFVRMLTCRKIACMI
Experimental: (§1) All constructs were confirmed by DNA sequencing.
(§2) Data from single dose experiments were collected as duplicates. […] Data represent mean ± SD.
(§3) To characterize the bitterness of olive oil phenolic compounds, we performed calcium mobilization experiments. The 25 bitter taste receptors, G protein chimera (Gα16-gus44), and the GCaMP calcium sensor[68] were transiently expressed in HEK293E cells. Twelve olive oil phenolic compounds (Fig. 1) were tested for bitter taster receptor activation (Fig. 3). […] Ligstroside aglycon, and Oleuropein aglycon activated TAS2R1, TAS2R8 and TAS2R14 receptors. To validate the single dose scanning results, we performed concentration–response experiments for all the compounds toward receptors TAS2R1, TAS2R8, and TAS2R14 that produced the most significant responses (Fig. 4).

[2] = molecular target: T2, TAS2R14 (Homo sapiens, UniProt Q9NYV8); assay: Calcium mobilization functional assay, TAS2R14 co-expressed with Gα16-gust44 and GCaMP in HEK293E cells
T2 construct: first 45 amino acids of rat somatostatin type 3 receptor (SSTR3) export tag (N); expressed in transfected cells; host or cells: HEK293E
T2 sequence (Q9NYV8 1-317): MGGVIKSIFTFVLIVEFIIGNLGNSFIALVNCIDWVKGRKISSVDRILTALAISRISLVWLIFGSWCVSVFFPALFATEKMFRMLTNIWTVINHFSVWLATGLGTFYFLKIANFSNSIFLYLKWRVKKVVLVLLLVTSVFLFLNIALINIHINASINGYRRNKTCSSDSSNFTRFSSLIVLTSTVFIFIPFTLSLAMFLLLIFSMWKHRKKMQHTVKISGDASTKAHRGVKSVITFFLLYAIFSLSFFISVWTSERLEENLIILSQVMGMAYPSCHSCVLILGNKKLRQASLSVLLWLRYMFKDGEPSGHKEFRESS
Experimental: as §1, §2, §3

[3] = molecular target: T3, TAS2R1 (Homo sapiens, UniProt Q9NYW7); assay: Calcium mobilization functional assay, TAS2R1 co-expressed with Gα16-gust44 and GCaMP in HEK293E cells
T3 construct: first 45 amino acids of rat somatostatin type 3 receptor (SSTR3) export tag (N); expressed in transfected cells; host or cells: HEK293E
T3 sequence (Q9NYW7 1-299): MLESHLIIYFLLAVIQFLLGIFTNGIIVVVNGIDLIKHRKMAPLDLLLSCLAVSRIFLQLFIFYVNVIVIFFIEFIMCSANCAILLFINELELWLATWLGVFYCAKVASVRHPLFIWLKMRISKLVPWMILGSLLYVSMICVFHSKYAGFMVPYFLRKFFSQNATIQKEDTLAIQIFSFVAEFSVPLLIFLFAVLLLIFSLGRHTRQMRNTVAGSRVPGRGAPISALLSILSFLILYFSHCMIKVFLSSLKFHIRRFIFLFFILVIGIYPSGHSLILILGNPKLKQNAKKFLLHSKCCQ
Experimental: as §1, §2, §3

[4] = tested on: 25 human TAS2Rs; assay: Single dose scanning of phenolic compounds on the 25 bitter taste receptors (calcium mobilization, HEK293E); conditions: single dose 300 µM, 25 TAS2Rs, N = 2
Experimental: as §1, §2, §3
Figure 3 Phenolic compound bitter taste activity tests on hTAS2Rs. Relative fluorescence signals caused by phenolic compound activation of the receptors and the empty vector as a negative control. The concentration of the compounds used was [300 µM], except for Ligstroside aglycon and Oleuropein aglycon [200 µM], oleuropein that was [3 mM]. The asterisks indicate significant differences tested by one-way ANOVA (***p < 0.0001) (N = 2). Data represent mean ± SD.

[5] = HEK293E, normalized to the highest response of TAS2R8 to oleuropein aglycon (100%), N = 3

## COC(=O)C1=COC(C)C(C=O)C1CC(=O)OCCc1ccc(O)c(O)c1 (single isomer, unassigned; isomer a) [Oleuropein aglycon closed-type (5a), oleuropein aglycon closed-type (isomer A)]
[1]
  times more potent than oleuropein: ~50 times

## COC(=O)C1=COC(C)C(C=O)C1CC(=O)OCCc1ccc(O)c(O)c1 (single isomer, unassigned; isomer b) [Oleuropein aglycon (5b), oleuropein aglycon closed-type (isomer B)]
[1]; [5]
  Emax: 100%
[1]; dose-response, N = 3, HEK293E
  EC50: 57.3 µM
[1]
  times more potent than oleuropein: ~50 times
[1]; single dose 200 µM
  activation of TAS2R8: activated
[2]; concentration-response experiments, compared with ligstroside aglycon
  potency and efficacy on TAS2R14 in words: even less potent and efficacious
[2]; single dose 200 µM
  activation of TAS2R14: activated
[3]; [5]
  Emax: 67.6%
[3]; dose-response, N = 3, HEK293E
  EC50: 142 µM
[3]; single dose 200 µM
  activation of TAS2R1: activated

## COC(=O)C1=COC(C)C(C=O)C1CC(=O)O (centres unmarked) [Elenolic acid, elenolic acid]
[1]
  potency and efficacy on TAS2R8 in words: activated weakly and less potently; also recorded: activated TAS2R8 with lower potency
[1]; single dose 300 µM
  activation of TAS2R8 over background: activate
[1]; single dose 300 µM, listed as elenolic acid
  activation of TAS2R8 over background: activated significantly

## OCCc1ccc(O)c(O)c1 [Hydroxytyrosol, hydroxytyrosol]
[4]
  activation of any TAS2R: failed to activate any bitter receptor

## C/C=C(/C=O)[C@@H](CC=O)CC(=O)OCCc1ccc(O)c(O)c1 [Oleacein, oleacein]
[4]
  activation of any TAS2R: did not activate any TAS2Rs; also recorded: did not show any activation of bitter receptors; also recorded: failed to activate any TAS2Rs

## C/C=C(/C=O)[C@@H](CC(=O)O)CC(=O)OCCc1ccc(O)cc1 [Oleocanthalic acid, oleocanthalic acid]
[1]
  potency and efficacy on TAS2R8 in words: activated TAS2R8 with lower potency
[1]; listed as oleocanthalic acid
  potency and efficacy on TAS2R8 in words: activated weakly and less potently
[1]; single dose 300 µM
  activation of TAS2R8 over background: activate
[1]; single dose 300 µM, listed as oleocanthalic acid
  activation of TAS2R8 over background: activated significantly

## C/C=C(/C=O)C(CC(=O)OCCc1ccc(O)c(O)c1)/C(=C/O)C(=O)OC (centres unmarked) [Oleomissional, oleomissional]
[1]
  potency and efficacy on TAS2R8 in words: activated weakly and less potently
[1]; listed as oleomissinal
  potency and efficacy on TAS2R8 in words: activated TAS2R8 with lower potency
[1]; single dose 300 µM
  activation of TAS2R8 over background: activate
[1]; single dose 300 µM, listed as oleomissional
  activation of TAS2R8 over background: activated significantly

## CC=C1C(OC2OC(CO)C(O)C(O)C2O)OC=C(C(=O)OC)C1CC(=O)O (centres unmarked) [Oleoside-methylester, oleoside-11-methylester]
[4]; listed as oleoside-11-methyl ester
  activation of any TAS2R: failed to activate any bitter receptor
[4]; listed as oleoside-methylester
  activation of any TAS2R: did not activate any TAS2Rs; also recorded: failed to activate any TAS2Rs

## C/C=C1/[C@H](O[C@@H]2O[C@H](CO)[C@@H](O)[C@H](O)[C@H]2O)OC=C(C(=O)OC)[C@H]1CC(=O)OCCc1ccc(O)c(O)c1 [Oleuropein, oleuropein]
[1]; TAS2R8
  potency lower compared to the aglycons: 50 fold
[1]
  potency and efficacy on TAS2R8 in words: high efficacy on TAS2R8 but very low potency and did not reach saturation
[1]; single dose 3 mM
  activation of TAS2R8 over background: activate; also recorded: activated TAS2R8 only
[1]; single dose 3 mM, listed as oleuropein
  activation of TAS2R8 over background: activated significantly
